Eight molecules from patent US20240360134A1, “PYRAZOLOPYRIMIDINES AND THEIR USES AS PDGFR INHIBITORS” (priority 2021, published 2024) can be followed below.

For assay [1], the target named is VEGFR2, unphosphorylated (Homo sapiens (Human), UniProt P35968). Put plainly: VEGFR ADP GLO assay. In kind it is biochemical. Particulars: 5 nM VEGFR2, 1.2 mM ATP, 1 mg/mL Srctide, 180 min. As for the experimental part:
Assay buffer stock contains 50 mM HEPES pH7.5, 10 mM MgCl2, 0.01% Brij-35, and 1 mM EGTA.
Unphosphorylated VEGFR2. 52.6 μM in 50 mM Tris-HCl, pH 8.0, 50 mM NaCl, 5% Glycerol, 0.5 mM TCEP. Store at −80° C. in aliquots.
10 mg/mL srctide solution, prepared in Assay buffer (Assay buffer stock with 2 mM DTT, 0.1% Pluronic F-127, and 0.1 mg/mL ovalbumin). Sonicate 10 mg/ml Srctide solution for 10 minutes and then vacuum filter.
Assay buffer. Add DTT to 2 mM, Pluronic F-127 to 0.1% and ovalbumin to 0.1 mg/mL to Assay buffer stock.
2× kinase solution. Make a working solution of 10 nM unphosphorylated VEGFR2 in Assay buffer. Vacuum filter 2× kinase solution prior to running assay. Keep on ice until use.
2× substrate/ATP solution. Make a working solution of 2 mg/mL srctide and 2.4 mM ATP in Assay buffer. Keep on ice until use.
Step 1. Dispensing inhibitors/controls: Using Echo, dispense 10 nL/well compound serial dilutions in DMSO to columns 1-22 (in 384-well plates) or columns 1-44 (in 1536-well plates). Dilution series=11 pt, 3-fold dilutions. The top compound concentration in the source plate is 4 mM. The top compound concentration in the assay plate is 10 uM. Using Echo, dispense 10 nl/well DMSO to column 23 (in 384-well plates) or columns 45-47 (in 1536-well plates). These wells will serve as negative control wells Using Echo, dispense 10 nl/well 400 uM TAK-593 in DMSO to column 24 (in 384-well plates) or column 48 (in 1536-well plates). The final concentration of TAK-593 in the assay should be 1 uM. These wells will serve as positive control wells.
Step 2. Pre-incubation of inhibitors with kinase: Add 2 μL/well 2× kinase solution. Centrifuge at 1000 rpm for 1 min. Incubate at room temperature for 30 min.
Step 3. Kinase cascade reaction: Add 2 μL/well 2× substrate/ATP solution to initiate kinase reactions. Centrifuge at 1000 rpm for 1 min. Incubate at room temperature for 180 min.
Final concentrations of components in the assay:
Step 4. Quench: Add 2 uL/well ADP Glo Reagent+0.05% CHAPS. Centrifuge at 1000 rpm for 1 min; Incubate at room temperature for one hour.
Step 5. Detection: Add 2 uL/well Kinase Detection Reagent+0.05% CHAPS. Centrifuge at 1000 rpm for 1 min; Incubate at room temperature for 1 hour; Read Luminescence on a plate reader.
% Inhibition: % Inhibition=(NC−sample)/(NC−PC)*100 where NC is the mean of negative control (reactions without inhibitor), and PC is the mean of positive control (1 μM TAK-593).
IC50 values are determined from a 4-parameter fit, using the following equation: Y=Bottom+(Top−Bottom)/(1+10^(Log IC50-X)*Hill Slope), where X=log10 of the compound concentration; top can be defined by PC; bottom defined by NC.
For orientation: In ADP-Glo the light output rises with the ADP produced.

Assay [2] deals with PDGFRβ (Rattus norvegicus (Rat), UniProt Q05030). Put plainly: PDGFRβ Cellular Assay (PDGFRb P-Y751 HTRF, PDGF-BB stimulated A10 cells). Particulars: A10 cells, 3 hours compound, 15 ng/mL PDGFbb for 10 minutes; read-out: PDGFR Cellular IC50. In kind it is cell-based. As for the experimental part: Cell Culture and Preparation: Cells are cultured according to ATCC procedure (5) with the addition of the antibiotic penicillin-streptomycin. If working from frozen, cells should be thawed according to ATCC procedure. Depending on the cell density of frozen vial, cells will need time to recover from thaw. An 80% confluent T75 flask should be enough for one 384 well plate.
Chain of PDGFRβ (Q05030 whole entry, looked up): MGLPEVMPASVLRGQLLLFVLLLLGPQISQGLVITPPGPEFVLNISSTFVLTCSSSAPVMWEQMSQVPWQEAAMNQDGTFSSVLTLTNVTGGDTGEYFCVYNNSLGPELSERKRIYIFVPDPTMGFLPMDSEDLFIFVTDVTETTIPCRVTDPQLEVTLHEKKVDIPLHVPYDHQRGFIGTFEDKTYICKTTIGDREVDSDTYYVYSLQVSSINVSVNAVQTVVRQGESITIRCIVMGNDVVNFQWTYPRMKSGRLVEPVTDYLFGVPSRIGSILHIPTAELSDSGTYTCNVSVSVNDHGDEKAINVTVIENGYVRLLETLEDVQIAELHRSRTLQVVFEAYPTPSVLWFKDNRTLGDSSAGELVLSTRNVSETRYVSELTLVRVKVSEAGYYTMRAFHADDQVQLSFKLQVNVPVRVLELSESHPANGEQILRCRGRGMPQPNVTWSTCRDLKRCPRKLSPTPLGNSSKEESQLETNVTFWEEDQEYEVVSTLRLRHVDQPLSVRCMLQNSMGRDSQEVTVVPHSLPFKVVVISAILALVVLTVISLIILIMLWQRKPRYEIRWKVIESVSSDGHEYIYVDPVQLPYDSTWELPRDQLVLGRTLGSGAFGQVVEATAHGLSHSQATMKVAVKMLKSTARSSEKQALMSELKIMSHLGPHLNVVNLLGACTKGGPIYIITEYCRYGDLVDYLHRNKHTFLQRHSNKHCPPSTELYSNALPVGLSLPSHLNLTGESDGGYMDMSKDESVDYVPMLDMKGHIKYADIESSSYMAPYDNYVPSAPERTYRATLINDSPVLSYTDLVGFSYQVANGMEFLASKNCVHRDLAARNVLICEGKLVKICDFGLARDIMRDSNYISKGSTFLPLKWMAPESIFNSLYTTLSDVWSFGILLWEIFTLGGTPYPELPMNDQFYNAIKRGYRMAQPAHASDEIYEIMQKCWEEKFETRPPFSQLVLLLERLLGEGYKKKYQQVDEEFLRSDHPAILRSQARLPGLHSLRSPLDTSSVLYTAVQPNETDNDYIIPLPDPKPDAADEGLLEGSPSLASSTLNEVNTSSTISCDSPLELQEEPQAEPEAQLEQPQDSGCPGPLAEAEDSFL
Stock Solutions: Rat PDGFBB. A 100 ug/mL stock is prepared by reconstituting 50 ug in 500 μL of 4 mM HCl and 0.1% BSA. It can be stored for a month at 4° C., or aliquoted out and frozen in the −20/−80° C. to avoid multiple free-thaw cycles.
1× Cisbio cell lysis buffer. The cell lysis buffer is diluted 4-fold with molecular grade water. The blocking agent is then diluted 25-fold in the diluted lysis buffer.
Antibody solutions. Equal amounts d2 and cryptate antibody are diluted 20-fold in detection buffer.
Rat PDGFBB. A working stock of 100 ng/mL is created from the stock solution in 10% FBS culture media.
Step 1: Plating Cells: Media from the A10 cell flask is aspirated. The cells are rinsed with PBS and then trypsinized to disperse the cell layer. The cells are then pelleted are resuspended to 1.25e5 cells/mL. […] Plates are covered and placed in the incubator (37° C. 5% CO2) overnight to allow cells to adhere.
Step 2: Compound Dispense: Approximately 18 hours after plating, dispense 40 nL compound onto cells using Echo. […] The plate is returned to the incubator for 3 hours.
After 10 minutes the media is removed by flicking the plate.
Step 4: Cell lysis and antibody addition: 20 uL lysis buffer per well is added to the plate via Tempest. 5 uL antibody solution is added per well via the Tempest. The plate is placed on the shaker at 230 rpm for 1 hour at room temperature.
Step 5: Detection: The plate is read using the HTRF module on the BMG Pherastar. Data is analyzed using Genedata Screener.
IC50 values are determined from a 4-parameter fit, using the following equation: Y=Bottom+(Top−Bottom)/(1+10((Log IC50−X)*Hill slope)), where X=log10 of the compound concentration; top can be defined by PC; bottom defined by NC.
(In TR-FRET formats the signal depends on donor and acceptor labels being close together.)

For assay [3], the target named is His6-TEV-PDGFRβ (557-1016) (Homo sapiens (Human), UniProt P09619). Put plainly: PDGFRβ HTRF Assay. In kind it is biochemical. As to conditions: 800 μM ATP, 0.5 μM TK-substrate biotin peptide, 30 min pre-incubation, 3 hours reaction; read-out: PDGFR HTRF IC50. The method, then:
Instrumentation: a. Compound liquid handling: LabCyte Echo; b. Reagent liquid handling: Thermo Scientific Multidrop Combi; c. BMG PHERAStar multilabel plate reader.
Protein Reagent: His6-TEV-PDGFRβ Protein Prep prepared at Accelagen.
Assay buffer stock solution, contains 50 mM Hepes, 10 mM MgCl2, 1 mM EGTA, and 0.01% Brij-35, 0.01% ovalbumin, 2 mM DTT at pH 7.5, in molecular biology grade water. Store at room temperature.
Assay buffer. Dilute 5× Kinase buffer 5-fold with molecular biology grade water and add DTT to 2 mM and ovalbumin to 0.1 mg/mL (or 0.01%).
2× protein solution. Make a working solution of […] PDGFRβ in assay buffer. Keep on ice until use to maintain enzyme stability.
2× substrate solution. Make a working solution of 1.6 mM ATP and 1 μM TK-substrate biotin peptide in assay buffer. 3× quench/detection solution.
Step 2. PDGFRβ E+I pre-incubation: Add 2 μL 2× protein solution to columns 1-24 using the Multidrop Combi. Centrifuge at 1000 rpm for 1 min. Incubate 30 min at RT
Step 2. Enzymatic reaction: Add 2 μL substrate solution to columns 1-24 to initiate the reaction using the Multidrop Combi; cover/seal the assay plate to reduce evaporation. Centrifuge at 1000 rpm for 1 min. Incubate at room temperature for 3 hours.
Final concentrations of components in PDGFRp cascade assay:
0.5 μM TK-substrate biotin peptide
Step 3. Quench/Detection: Add 2 μl 3× quench/detection solution to columns 1-24 using the Multidrop Combi; cover/seal the plate. Centrifuge 1 min 1000 rpm. Incubate at RT for 60 min.
HTRF ratio values calculated by the instrument (Ratio is acceptor counts/donor counts*10,000) is exported from the plate reader and used in data analysis. The exported data will be used to calculate 1) compound activity and 2) assay statistics. […] Assay statistics can include Robust Z′ and Signal to Background.
% Inhibition Calculation: Percent inhibition will be calculated for sample wells based on the equation: […]
IC50 Calculation: For IC50 determination, full 11-point dose response data will be processed using the following equation: […]

Assay [4] addresses Tb-labeled inactive PDGFRβ (Homo sapiens (Human), UniProt P09619). Briefly: biochemical. In kind it is binding. Particulars: read-out: PDGFR Lantha IC50.

pIC50: −log10 of the molar value.

Chain of VEGFR2, unphosphorylated (P35968 whole entry, looked up): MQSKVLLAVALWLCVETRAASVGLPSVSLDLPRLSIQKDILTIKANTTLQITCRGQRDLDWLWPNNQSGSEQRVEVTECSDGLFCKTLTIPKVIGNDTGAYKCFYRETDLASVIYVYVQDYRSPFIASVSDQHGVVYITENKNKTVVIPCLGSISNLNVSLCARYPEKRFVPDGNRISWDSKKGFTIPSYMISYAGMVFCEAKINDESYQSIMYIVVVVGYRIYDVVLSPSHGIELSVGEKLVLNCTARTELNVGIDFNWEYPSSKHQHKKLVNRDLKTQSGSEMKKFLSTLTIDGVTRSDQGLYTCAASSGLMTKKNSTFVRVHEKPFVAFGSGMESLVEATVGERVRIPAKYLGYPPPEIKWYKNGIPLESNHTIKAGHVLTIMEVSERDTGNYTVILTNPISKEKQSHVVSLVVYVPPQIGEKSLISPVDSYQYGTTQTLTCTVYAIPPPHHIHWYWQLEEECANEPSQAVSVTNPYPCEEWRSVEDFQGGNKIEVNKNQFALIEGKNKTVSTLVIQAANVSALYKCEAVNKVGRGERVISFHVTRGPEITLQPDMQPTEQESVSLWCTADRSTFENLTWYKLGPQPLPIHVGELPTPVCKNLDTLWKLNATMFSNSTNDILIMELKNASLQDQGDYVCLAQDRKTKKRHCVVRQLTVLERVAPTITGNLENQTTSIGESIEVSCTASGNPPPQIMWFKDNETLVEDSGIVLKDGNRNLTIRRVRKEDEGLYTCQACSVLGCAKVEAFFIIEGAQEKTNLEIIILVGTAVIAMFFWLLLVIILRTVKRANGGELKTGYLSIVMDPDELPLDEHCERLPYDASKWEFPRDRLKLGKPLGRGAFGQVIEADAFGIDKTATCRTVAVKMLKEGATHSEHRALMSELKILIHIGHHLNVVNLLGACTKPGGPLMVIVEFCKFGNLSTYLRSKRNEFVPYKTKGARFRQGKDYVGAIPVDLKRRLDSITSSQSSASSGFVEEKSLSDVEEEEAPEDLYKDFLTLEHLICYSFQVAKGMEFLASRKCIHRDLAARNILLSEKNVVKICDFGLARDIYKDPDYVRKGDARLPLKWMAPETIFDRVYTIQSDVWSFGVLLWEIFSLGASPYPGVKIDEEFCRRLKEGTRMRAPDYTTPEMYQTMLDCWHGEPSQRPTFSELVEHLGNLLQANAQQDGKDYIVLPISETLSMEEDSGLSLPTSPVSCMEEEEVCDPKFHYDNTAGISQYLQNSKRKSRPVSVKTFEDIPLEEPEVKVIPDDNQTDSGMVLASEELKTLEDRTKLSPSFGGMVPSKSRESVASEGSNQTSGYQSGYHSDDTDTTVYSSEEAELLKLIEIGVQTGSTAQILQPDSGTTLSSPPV
Chain of Tb-labeled inactive PDGFRβ (P09619 whole entry, looked up): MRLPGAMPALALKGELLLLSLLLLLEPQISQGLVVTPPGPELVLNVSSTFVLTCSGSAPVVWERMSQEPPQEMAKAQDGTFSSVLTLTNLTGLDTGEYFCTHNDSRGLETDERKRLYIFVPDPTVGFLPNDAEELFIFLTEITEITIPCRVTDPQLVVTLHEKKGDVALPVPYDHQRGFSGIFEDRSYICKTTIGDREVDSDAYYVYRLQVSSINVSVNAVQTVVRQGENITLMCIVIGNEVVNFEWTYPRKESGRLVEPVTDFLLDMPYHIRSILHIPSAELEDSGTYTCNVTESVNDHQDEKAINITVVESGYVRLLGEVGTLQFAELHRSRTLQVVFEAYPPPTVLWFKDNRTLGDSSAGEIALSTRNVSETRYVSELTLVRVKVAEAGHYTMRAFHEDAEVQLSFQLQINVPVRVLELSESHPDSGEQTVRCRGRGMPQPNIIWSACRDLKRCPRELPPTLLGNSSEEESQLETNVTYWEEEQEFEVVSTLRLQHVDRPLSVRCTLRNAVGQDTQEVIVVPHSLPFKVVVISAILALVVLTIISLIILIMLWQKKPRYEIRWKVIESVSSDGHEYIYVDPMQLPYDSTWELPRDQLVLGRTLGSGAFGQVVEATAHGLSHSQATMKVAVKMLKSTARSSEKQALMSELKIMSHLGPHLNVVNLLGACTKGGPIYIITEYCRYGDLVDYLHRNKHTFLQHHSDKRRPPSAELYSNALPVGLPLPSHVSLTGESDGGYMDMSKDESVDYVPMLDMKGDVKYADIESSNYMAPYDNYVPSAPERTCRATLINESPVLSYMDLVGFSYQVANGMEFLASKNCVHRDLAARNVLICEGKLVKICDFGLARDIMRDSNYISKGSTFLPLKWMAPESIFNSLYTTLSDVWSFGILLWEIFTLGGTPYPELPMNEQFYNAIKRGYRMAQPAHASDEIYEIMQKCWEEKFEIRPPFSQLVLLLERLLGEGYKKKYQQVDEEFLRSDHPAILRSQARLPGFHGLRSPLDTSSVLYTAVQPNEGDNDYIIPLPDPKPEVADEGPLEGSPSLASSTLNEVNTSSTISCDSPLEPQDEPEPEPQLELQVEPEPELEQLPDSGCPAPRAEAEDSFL
Chain of His6-TEV-PDGFRβ (557-1016) (P09619 whole entry, looked up): as above

As a reminder, the pIC50 is the negative decadic logarithm of the IC50, by convention in mol/L. On to `Cc1cc(C(=O)NCCN2CCCC2(C)C)sc1Nc1nn(C)c2nc(Nc3cncnc3)ncc12` [Example 48, N-(2-(2,2-dimethylpyrrolidin-1-yl)ethyl)-4-methyl-5-((1-methyl-6-(pyrimidin-5-ylamino)-1H-pyrazolo[3,4-d]pyrimidin-3-yl)amino)thiophene-2-carboxamide], for which the pIC50 in assay [1] is less than 5.12; in assay [2], 6.96; in assay [3], 8.97; in assay [4], 7.28.

As for `Cc1ncc(C(=O)NCCN2CCCC2(C)C)cc1Nc1nn(C)c2nc(Nc3cncc(CC(=O)O)c3)ncc12` [Example 33, 2-(5-((3-((5-((2-(2,2-dimethylpyrrolidin-1-yl)ethyl)carbamoyl)-2-methylpyridin-3-yl)amino)-1-methyl-1H-pyrazolo[3,4-d]pyrimidin-6-yl)amino)pyridin-3-yl)acetic acid], the pIC50 in assay [1] is 5.66; in assay [2], less than 5.52; in assay [3] it was 8.92; in assay [4], 8.06.

`Cc1ncc(C(=O)NCCN2[C@H](C)COC[C@H]2C)cc1Nc1nn(C)c2nc(Nc3cnn(C)c3)ncc12` (relative stereo) [Example 94, N-(2-(trans-3,5-dimethylmorpholino)ethyl)-6-methyl-5-((1-methyl-6-((1-methyl-1H-pyrazol-4-yl)amino)-1H-pyrazolo[3,4-d]pyrimidin-3-yl)amino)nicotinamide]: the pIC50 in assay [1] was 5.93; in assay [2] it was 7.86; in assay [3], 9.48; in assay [4], 8.68.

For the molecule `Cc1ncc(C(=O)NCCC2CCCCC2)cc1Nc1nn(C)c2nc(Nc3ccc(CC(=O)O)cc3)ncc12` [Example 104, 2-(4-((3-((5-((2-cyclohexylethyl)carbamoyl)-2-methylpyridin-3-yl)amino)-1-methyl-1H-pyrazolo[3,4-d]pyrimidin-6-yl)amino)phenyl)acetic acid], the pIC50 in assay [1] was 7.11; in assay [2], 5.63; in assay [3], 9.36; in assay [4] it was 8.62.

Take `Cc1ncc(C(=O)NCCN2CCCC2(C)C)cc1Nc1nn(C)c2nc(Nc3ccc(N4CCOCC4)nc3)ncc12` [Example 102, N-(2-(2,2-dimethylpyrrolidin-1-yl)ethyl)-6-methyl-5-((1-methyl-6-((6-morpholinopyridin-3-yl)amino)-1H-pyrazolo[3,4-d]pyrimidin-3-yl)amino)nicotinamide]: the pIC50 is less than 5.12 in assay [1], 8.12 in assay [2], 9.43 in assay [3] and 8.42 in assay [4].

Take `Cc1ncc(C(=O)NCCN2CC3CCC2CC3)cc1Nc1nn(C)c2nc(Nc3cnn(C)c3)ncc12` [Example 85, N-(2-(2-azabicyclo[2.2.2]octan-2-yl)ethyl)-6-methyl-5-((1-methyl-6-((1-methyl-1H-pyrazol-4-yl)amino)-1H-pyrazolo[3,4-d]pyrimidin-3-yl)amino)nicotinamide]: the pIC50 is 5.18 in assay [1], 7.15 in assay [2], 9.57 in assay [3] and 8.77 in assay [4].

For the molecule `Cc1ncc(C(=O)NCCN2CCC(F)(F)CC2)cc1Nc1nn(C)c2nc(Nc3cncnc3)ncc12` [Example 1, N-(2-(4,4-difluoropiperidin-1-yl)ethyl)-6-methyl-5-((1-methyl-6-(pyrimidin-5-ylamino)-1H-pyrazolo[3,4-d]pyrimidin-3-yl)amino)nicotinamide], the pIC50 is less than 5.12 in assay [1], 7.92 in assay [2], 9.19 in assay [3] and 8.48 in assay [4].

As to `Cc1ncc(C(=O)NCCN2CCCC2(C)C)cc1Nc1nn(C)c2nc(NC3CCS(=O)(=O)CC3)ncc12` [Example 45, N-(2-(2,2-dimethylpyrrolidin-1-yl)ethyl)-5-((6-((1,1-dioxido-tetrahydro-2H-thiopyran-4-yl)amino)-1-methyl-1H-pyrazolo[3,4-d]pyrimidin-3-yl)amino)-6-methylnicotinamide], the figures for the pIC50 in assay [1], in assay [3] and in assay [4] were less than 5.00, 7.29 and 5.79, respectively.
